From ChEMBL document CHEMBL5465560, “Selectivity Literature for EUbOPEN Chemogenomic Library” (2024) come the findings set out here.

The target in assay [1] is Platelet-derived growth factor receptor beta (Homo sapiens, UniProt P09619). As to the kind of experiment: Selectivity interaction (ProQinase) EUB0000171b PDGFRB.
In assay [2] the target is Tyrosine-protein kinase JAK2 (Homo sapiens, UniProt O60674). As to the kind of experiment: Selectivity interaction (Antiproliferative activity against Tel-kinase transformed Ba/F3 cell line) EUB0000045b JAK2. The assay is classed as cell-based. Conditions: BaF3.
Chain of Tyrosine-protein kinase JAK2 (O60674 whole entry): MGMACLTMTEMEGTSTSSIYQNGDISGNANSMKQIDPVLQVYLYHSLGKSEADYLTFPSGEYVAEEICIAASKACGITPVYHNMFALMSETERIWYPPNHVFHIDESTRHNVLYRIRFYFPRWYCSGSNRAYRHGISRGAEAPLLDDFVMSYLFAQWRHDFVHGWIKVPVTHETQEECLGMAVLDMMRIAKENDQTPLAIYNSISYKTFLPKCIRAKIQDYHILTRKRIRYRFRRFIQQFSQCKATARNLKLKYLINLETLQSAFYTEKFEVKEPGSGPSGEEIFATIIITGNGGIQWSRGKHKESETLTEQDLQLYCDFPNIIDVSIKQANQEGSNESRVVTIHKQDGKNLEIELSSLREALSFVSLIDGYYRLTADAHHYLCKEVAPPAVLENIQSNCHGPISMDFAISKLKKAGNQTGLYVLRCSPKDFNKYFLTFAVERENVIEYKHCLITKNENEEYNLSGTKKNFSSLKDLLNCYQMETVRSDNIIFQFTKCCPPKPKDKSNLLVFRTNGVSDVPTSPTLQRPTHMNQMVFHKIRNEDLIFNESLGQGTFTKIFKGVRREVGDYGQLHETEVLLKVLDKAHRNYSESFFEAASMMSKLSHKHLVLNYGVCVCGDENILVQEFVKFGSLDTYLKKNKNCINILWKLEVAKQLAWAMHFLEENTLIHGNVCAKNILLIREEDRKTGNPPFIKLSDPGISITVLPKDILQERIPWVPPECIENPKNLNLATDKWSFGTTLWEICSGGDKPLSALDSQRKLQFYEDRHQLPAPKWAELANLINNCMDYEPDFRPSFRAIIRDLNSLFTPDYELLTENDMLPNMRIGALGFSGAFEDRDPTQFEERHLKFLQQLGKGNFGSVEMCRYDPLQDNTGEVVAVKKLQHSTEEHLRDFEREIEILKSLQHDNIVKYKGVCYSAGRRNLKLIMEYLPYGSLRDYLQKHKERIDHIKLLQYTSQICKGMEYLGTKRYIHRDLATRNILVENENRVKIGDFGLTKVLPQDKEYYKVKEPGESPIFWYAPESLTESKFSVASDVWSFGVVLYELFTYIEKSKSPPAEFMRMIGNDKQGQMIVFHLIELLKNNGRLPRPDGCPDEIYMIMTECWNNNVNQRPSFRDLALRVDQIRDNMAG
Assay [3] deals with G protein-coupled receptor kinase 5 (Homo sapiens, UniProt P34947). As to the kind of experiment: Selectivity interaction (Kinase panel (Z-LYTE Assay)) EUB0001632a GRK5. Particulars: at 10 µM.
In assay [4] the target is T1, Ephrin type-B receptor 1 (Homo sapiens) (UniProt P54762).
T1 sequence (whole entry): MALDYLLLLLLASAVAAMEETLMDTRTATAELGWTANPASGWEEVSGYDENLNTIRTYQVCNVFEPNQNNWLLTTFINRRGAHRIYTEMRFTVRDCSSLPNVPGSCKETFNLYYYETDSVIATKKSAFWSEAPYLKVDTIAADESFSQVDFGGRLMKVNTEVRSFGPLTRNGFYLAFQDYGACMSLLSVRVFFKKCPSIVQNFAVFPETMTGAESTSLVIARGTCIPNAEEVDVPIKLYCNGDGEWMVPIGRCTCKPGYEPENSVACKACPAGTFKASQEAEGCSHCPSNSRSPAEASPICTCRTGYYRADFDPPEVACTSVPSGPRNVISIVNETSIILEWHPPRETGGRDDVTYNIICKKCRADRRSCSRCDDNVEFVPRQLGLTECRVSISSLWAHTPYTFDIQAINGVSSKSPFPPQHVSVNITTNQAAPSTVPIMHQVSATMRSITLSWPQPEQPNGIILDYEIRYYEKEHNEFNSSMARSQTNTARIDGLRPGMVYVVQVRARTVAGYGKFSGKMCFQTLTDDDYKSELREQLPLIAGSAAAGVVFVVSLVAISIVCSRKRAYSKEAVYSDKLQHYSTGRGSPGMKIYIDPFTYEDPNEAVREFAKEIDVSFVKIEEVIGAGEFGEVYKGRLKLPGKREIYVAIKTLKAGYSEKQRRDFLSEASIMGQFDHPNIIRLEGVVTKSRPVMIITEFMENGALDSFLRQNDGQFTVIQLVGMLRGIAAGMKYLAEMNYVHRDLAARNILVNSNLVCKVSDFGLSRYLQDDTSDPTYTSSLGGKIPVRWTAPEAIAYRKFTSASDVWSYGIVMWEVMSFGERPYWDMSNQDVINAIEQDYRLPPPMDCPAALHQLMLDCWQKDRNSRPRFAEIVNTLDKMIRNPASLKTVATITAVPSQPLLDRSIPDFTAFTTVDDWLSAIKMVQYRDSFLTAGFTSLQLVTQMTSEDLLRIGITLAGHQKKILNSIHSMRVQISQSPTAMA
As to the kind of experiment: Selectivity interaction (SelectScreen profiling (Invitrogen)) EUB0000607a EPHB1. Conditions: at 2 µM.

Assay [5] concerns the target Myosin light chain kinase 2, skeletal/cardiac muscle (Homo sapiens) (UniProt Q9H1R3). As to the kind of experiment: Selectivity interaction (SelectScreen profiling (Invitrogen)) EUB0000607a MYLK2. Particulars: at 2 µM.
Assay [6] deals with Interferon-induced, double-stranded RNA-activated protein kinase (Homo sapiens) (UniProt P19525). As to the kind of experiment: Selectivity interaction (KinomeScan (DiscoverX)) EUB0000607a EIF2AK2. Conditions: at 10 µM.
Chain of Interferon-induced, double-stranded RNA-activated protein kinase (Homo sapiens) (P19525 whole entry): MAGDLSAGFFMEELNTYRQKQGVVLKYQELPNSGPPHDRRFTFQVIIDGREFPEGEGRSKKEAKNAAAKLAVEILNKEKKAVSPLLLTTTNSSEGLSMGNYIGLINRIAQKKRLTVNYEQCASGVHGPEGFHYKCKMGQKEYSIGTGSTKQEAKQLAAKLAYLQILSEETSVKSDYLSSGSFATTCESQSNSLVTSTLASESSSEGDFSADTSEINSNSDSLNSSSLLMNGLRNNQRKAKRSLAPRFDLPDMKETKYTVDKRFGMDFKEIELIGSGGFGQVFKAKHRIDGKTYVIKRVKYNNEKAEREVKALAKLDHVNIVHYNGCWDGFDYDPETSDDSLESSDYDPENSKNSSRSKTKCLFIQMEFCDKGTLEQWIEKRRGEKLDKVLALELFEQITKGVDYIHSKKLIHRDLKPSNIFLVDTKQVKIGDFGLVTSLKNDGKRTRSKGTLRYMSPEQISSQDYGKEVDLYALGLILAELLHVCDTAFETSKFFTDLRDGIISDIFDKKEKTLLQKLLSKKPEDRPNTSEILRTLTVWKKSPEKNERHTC
Assay [7] has as its target 5-hydroxytryptamine receptor 2B (Homo sapiens, UniProt P41595). As to the kind of experiment: Selectivity interaction (Serotonin 5HT2B Calcium flux assay, agonist mode ) EUB0000877a HTR2B.
For assay [8], the target named is Tyrosine-protein kinase Lyn (Homo sapiens, UniProt P07948). As to the kind of experiment: Selectivity interaction (KinomeScan (DiscoverX)) EUB0000595a LYN. Conditions: at 10 µM.
Chain of Tyrosine-protein kinase Lyn (P07948 2-512 limits assumed): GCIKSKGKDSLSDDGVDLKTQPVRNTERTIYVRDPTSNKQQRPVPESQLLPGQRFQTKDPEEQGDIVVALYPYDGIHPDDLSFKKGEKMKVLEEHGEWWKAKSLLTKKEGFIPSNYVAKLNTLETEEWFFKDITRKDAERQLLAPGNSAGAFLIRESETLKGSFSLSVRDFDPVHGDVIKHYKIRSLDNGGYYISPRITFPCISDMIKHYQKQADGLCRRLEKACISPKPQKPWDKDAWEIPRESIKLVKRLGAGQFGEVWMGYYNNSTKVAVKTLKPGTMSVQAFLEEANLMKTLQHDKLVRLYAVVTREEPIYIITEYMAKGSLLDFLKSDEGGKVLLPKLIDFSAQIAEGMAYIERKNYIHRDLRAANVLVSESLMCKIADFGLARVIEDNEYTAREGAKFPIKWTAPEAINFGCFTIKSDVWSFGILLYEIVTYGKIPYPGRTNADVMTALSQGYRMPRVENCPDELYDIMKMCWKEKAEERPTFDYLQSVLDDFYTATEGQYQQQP
The target of assay [9] is Mitogen-activated protein kinase 1 (Homo sapiens, UniProt P28482). As to the kind of experiment: Selectivity interaction (Kinase panel (KiNativ target engagement assay in Jurkat cells)) EUB0001635a MAPK1. The class given is cell-based. Particulars: Selectivity number of off-targets 0.0, Selectivity number of targets 233.0, Source Knowledge https://www.sciencedirect.com/science/article/pii/S2451945619300674?via%3Dihub, at 1 µM.
Chain of Mitogen-activated protein kinase 1 (P28482 whole entry): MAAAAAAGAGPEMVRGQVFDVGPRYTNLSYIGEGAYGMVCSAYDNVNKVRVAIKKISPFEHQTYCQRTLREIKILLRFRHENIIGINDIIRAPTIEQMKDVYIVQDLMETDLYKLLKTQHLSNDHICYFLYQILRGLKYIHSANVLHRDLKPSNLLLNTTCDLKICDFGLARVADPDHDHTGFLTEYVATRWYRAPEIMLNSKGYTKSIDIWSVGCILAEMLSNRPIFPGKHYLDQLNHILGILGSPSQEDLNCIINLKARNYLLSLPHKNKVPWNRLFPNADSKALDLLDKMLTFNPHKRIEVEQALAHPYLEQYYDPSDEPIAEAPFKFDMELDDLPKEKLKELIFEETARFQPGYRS

The target of assay [10] is T2, Peripheral plasma membrane protein CASK (Homo sapiens) (UniProt O14936).
T2 sequence (whole entry): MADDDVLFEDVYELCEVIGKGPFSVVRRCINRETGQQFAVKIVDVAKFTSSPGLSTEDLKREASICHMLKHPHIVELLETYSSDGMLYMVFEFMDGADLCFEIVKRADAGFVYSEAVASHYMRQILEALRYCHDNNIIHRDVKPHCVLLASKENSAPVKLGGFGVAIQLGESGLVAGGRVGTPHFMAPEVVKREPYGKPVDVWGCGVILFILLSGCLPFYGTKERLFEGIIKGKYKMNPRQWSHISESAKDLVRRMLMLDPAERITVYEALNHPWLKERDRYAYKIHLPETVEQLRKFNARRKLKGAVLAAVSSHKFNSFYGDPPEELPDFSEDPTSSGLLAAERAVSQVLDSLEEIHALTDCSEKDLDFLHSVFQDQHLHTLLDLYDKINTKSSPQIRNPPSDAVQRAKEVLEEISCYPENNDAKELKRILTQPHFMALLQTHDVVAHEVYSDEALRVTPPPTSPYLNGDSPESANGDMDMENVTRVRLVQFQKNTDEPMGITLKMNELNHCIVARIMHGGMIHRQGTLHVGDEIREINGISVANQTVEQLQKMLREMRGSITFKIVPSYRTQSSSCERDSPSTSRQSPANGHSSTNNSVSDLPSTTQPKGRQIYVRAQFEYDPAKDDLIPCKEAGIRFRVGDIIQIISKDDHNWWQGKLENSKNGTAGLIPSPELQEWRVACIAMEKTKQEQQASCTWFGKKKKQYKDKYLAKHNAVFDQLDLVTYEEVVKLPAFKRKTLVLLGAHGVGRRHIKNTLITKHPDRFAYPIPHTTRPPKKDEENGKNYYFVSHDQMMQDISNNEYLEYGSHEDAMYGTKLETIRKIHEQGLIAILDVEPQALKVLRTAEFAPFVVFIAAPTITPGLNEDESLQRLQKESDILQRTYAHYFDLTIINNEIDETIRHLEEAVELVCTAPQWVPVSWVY
As to the kind of experiment: Selectivity interaction (KinomeScan (DiscoverX)) EUB0000618a CASK. Particulars: at 10 µM.

Chain of Platelet-derived growth factor receptor beta (P09619 whole entry): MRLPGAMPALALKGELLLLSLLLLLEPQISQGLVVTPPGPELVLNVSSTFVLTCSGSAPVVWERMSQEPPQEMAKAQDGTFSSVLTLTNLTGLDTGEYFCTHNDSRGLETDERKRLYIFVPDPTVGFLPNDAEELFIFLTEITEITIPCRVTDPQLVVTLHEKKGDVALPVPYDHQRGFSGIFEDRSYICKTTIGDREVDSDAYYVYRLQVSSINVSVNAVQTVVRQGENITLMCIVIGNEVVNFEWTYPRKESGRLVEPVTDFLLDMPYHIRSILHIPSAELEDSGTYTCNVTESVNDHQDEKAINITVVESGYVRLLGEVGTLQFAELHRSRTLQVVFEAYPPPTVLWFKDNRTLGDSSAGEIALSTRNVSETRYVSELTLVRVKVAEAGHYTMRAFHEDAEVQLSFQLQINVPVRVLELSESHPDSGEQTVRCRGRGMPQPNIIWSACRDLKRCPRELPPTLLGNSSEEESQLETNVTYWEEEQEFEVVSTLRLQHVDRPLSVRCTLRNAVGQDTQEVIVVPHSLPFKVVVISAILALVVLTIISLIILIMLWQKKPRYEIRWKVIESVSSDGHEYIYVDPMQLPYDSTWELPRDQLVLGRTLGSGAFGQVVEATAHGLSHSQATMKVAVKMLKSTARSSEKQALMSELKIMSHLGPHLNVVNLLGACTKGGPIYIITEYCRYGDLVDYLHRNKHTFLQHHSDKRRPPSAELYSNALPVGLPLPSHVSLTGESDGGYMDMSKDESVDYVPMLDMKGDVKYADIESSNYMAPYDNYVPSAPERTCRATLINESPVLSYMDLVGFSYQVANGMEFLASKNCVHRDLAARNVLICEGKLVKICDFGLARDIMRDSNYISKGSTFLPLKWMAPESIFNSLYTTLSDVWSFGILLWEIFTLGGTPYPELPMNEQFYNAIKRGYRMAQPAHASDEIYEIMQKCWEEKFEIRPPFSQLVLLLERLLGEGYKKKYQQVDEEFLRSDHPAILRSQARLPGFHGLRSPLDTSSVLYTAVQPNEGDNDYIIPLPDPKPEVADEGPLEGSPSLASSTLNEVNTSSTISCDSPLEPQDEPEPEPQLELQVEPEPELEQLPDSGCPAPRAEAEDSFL
Chain of 5-hydroxytryptamine receptor 2B (P41595 whole entry): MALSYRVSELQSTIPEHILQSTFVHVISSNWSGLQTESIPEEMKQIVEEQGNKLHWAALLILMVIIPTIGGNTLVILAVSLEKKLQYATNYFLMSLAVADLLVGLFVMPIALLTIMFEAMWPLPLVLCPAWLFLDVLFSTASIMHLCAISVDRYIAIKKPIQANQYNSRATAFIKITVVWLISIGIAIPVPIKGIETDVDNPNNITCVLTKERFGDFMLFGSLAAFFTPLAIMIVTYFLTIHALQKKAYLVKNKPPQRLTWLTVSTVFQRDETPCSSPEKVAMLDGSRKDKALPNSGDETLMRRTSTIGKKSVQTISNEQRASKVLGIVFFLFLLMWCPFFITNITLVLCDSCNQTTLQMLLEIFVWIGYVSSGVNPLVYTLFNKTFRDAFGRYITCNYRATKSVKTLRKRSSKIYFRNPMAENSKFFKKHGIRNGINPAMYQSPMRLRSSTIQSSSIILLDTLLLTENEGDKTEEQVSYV
Chain of Myosin light chain kinase 2, skeletal/cardiac muscle (Homo sapiens) (Q9H1R3 whole entry): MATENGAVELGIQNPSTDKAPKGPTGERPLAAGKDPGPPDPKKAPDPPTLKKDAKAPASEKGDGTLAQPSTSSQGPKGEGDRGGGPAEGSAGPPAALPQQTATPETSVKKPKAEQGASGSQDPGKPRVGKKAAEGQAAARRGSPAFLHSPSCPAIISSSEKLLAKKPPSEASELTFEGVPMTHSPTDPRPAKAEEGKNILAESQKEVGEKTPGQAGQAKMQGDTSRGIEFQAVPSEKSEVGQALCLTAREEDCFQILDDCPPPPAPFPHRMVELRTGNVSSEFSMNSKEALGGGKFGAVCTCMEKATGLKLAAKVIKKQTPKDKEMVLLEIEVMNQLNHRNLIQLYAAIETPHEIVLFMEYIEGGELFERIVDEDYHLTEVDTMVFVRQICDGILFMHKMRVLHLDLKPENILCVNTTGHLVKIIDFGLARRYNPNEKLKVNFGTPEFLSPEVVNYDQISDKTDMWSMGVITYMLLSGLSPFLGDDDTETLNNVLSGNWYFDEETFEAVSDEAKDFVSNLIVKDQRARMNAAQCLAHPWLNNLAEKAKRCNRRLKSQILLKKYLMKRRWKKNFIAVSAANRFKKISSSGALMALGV

Regarding `C=CC(=O)Nc1cccc(C(=O)Nc2ccc(Nc3cc(-c4[nH]c(SC)nc4C)ccn3)cc2)c1`, the % of control in [1] (at 1 µM) was determined as 74%; in assay [1] (at 5 µM) it was 46%. For `C=CC(=O)Nc1cc(-n2c(=O)ccc3cnc4ccc(-c5ccc(NS(C)(=O)=O)cc5)cc4c32)ccc1C`, the GIC50 in assay [2] is 5.83 µM. With `Cn1cc(-n2cnc3c(NCc4nc5cc(Cl)c(Cl)cc5[nH]4)nc(N4CCOCC4)nc32)cn1`, the % of control in [3] is -0.027%.

On to `CNC(=O)Nc1ccc(-c2nc(N3CC4CCC(C3)O4)c3cnn(C4CCC5(CC4)OCCO5)c3n2)cc1`, for which the % of inhibition in assay [4] came out at 2%; in assay [5], 8%. In assay [6], the % of control amounted to 100%.

For orientation: IC50 means the concentration needed to halve the response being measured. Take `CCC(=O)N1CC[C@H](Nc2ncnc3c2CN(c2cnc(OC)c(C(F)(F)F)c2)CC3)C1` [LENIOLISIB]: the IC50 in assay [7] is > 30 µM.

Take `COCC(=O)NC/C=C/c1ccc2ncnc(Nc3ccc(Oc4ccc(C)nc4)c(C)c3)c2c1` [CP-724714]: the % of control in assay [8] worked out at 92%. `C=CC(=O)Nc1ccc(C(=O)Nc2[nH]nc3c2CN(C(=O)N[C@H](CN(C)C)c2ccccc2)C3(C)C)cc1` came in with a % of engagement in [9] of 0.4%. Regarding `O[C@H]1CC[C@H](Nc2ncc3nc(Nc4c(F)cc(F)cc4F)n([C@H]4CCOC4)c3n2)CC1`, the % of control in [10] is 95%.
